Here are results for eight molecules from patent US20060275812A1, “Assay for agonists and antagonists of ion channels and for regulators of genetic expression” (University of Pittsburgh of the Commonwealth System of …, priority 2005, published 2006).

Experiment [1] addresses T1, TRPV1 (Rattus norvegicus, UniProt O35433).
T1 construct: expressed in transfected cells; host or cells: ICP4/ICP27-complementing 7b cells (Vero-derived) infected with HSV-1 vector vTT
Description: Intracellular calcium measurement (FURA-2). It is filed as cell-based. Here is the method:
Free intracellular calcium was measured by photon scanning on a dual excitation fluorimeter (PTI, Lawrenceville, N.J.). vTT or QOZ infected 7b cells were plated in 6 well plates containing 13.5×20 mm coverslips. Infected cells (8 hpi, 3 PFU/cell) were rinsed with 1× Hank's balanced salt solution (HBSS) and loaded with 2 μM FURA-2 (Molecular Probes Inc., Eugene, Oreg.) (Sneddon et al., 2000) for 1 hour at 37° C. in a 5% CO2 incubator. Coverslips with FURA-2 loaded cells were then placed in a cuvette containing HBBS and then separately subjected to capsaicin at either 3 or 0.3 μM concentrations. Calcium flux following the application of each concentration of capsaicin was measured at 2 Hz and graphed. Results were calibrated by adding 5 μM ionomycin to obtain the maximum fluorescence ratio, followed by addition of 10 mM EGTA to obtain the minimum fluorescence ratio. A Kd of FURA-2 for calcium of 224 nM was assumed.
In general terms: A change in cytosolic calcium serves as a functional read-out for many receptors and channels.

The target of a further experiment is rat TRPV1 receptor (Rattus norvegicus, UniProt O35433). Put plainly: Whole cell patch clamp recordings of capsaicin induced currents. For orientation: In patch-clamp work, channel activity is measured electrically.
In experiment [2] the target is T1, TRPV1. Description: Viral growth assay (vTT / vHG titers by plaque assay). It is filed as cell-based.
Experiment [3] concerns the target T1, TRPV1. Description: Capsaicin selection against vTT in mixed vHG:vTT infections. The class given is cell-based.
Where [4] appears, read: vTT infected 7b cells, 5 μM ionomycin.
[5] abbreviates: vTT infected cells, BIM pre-incubation, n=3.
[6] abbreviates: vTT infected cells, mean±SEM, n=8.

“Also recorded” adds a separate entry of the source.

T1 sequence (O35433 whole entry): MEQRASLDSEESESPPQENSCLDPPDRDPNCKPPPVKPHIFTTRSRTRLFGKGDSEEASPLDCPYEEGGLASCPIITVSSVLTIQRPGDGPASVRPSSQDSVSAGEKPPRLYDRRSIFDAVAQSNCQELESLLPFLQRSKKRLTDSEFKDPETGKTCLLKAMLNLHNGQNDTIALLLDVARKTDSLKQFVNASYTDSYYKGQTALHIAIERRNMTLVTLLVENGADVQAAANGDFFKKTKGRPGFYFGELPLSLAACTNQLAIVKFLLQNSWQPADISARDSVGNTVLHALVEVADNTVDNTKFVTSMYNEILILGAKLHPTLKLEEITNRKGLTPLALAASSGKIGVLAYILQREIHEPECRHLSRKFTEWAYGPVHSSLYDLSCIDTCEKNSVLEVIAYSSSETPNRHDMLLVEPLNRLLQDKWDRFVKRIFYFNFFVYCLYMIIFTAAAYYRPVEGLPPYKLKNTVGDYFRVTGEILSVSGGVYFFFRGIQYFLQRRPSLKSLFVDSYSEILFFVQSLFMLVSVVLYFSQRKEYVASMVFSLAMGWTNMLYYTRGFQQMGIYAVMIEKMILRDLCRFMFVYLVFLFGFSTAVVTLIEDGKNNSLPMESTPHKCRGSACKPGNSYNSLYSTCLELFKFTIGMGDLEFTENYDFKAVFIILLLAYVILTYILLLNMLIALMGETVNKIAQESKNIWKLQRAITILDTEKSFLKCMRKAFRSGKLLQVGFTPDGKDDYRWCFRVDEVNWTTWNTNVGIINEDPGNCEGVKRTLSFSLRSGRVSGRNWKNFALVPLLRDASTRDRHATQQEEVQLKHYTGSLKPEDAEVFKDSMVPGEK
rat TRPV1 receptor, sequence (O35433 whole entry): as above

In the case of `O=C(O)CN(CCOCCOCCN(CC(=O)O)CC(=O)O)CC(=O)O` [EGTA], the “intracellular calcium signal after capsaicin and ionomycin” value at TRPV1 [1] (vTT infected 7b cells, 10 mM EGTA) is listed as “return to baseline levels”.
In the case of `C[C@H](CCC(=O)O)C[C@H](C)C[C@H](C)C(=O)/C=C(\O)[C@H](C)C[C@H](C)C/C=C/[C@@H](C)[C@@H](O)[C@@H](C)[C@@H](O)C[C@@H]1CC[C@@](C)([C@H]2CC[C@@](C)([C@@H](C)O)O2)O1` [ionomycin], the calcium influx result on TRPV1 [1] (QOZ infected cells, 5 μM ionomycin) is on record as “maximal calcium influx”. Also, at TRPV1 [1] (setting [4]), the “intracellular calcium response after 0.3 μM capsaicin” value is reported as “further increased” and the “intracellular calcium response after 3 μM capsaicin” value was “did not further increase”.
As to `CN(C)CCCn1cc(C2=C(c3c[nH]c4ccccc34)C(=O)NC2=O)c2ccccc21.Cl` [BIM, bisindolylmaleimide I HCl], at rat TRPV1 receptor (vTT infected 7b cells, compared to BIM untreated), the “effect of pre-incubation on capsaicin currents” value is “significantly lower amplitude and rapidly desensitizing currents”. At rat TRPV1 receptor (setting [5]), the “Capsaicin (nA)” value is reported as −2.2 ± 1.2 nA and the “Capsaicin Desensitization Time-course (tau, s)” value came to 53.4 ± 15.4 s.
For `N.N.N.N.N.N.N.N.N.N.N.N.N.N.[Cl-].[Cl-].[Cl-].[Cl-].[Cl-].[Cl-].[O-2].[O-2].[Ru+3].[Ru+3].[Ru+4]` [ruthenium red], at TRPV1 [2], the “replication of vTT in the presence of capsaicin” value was “completely restored” and the “vector replication, antagonist alone” value was “unaffected”. Further, the “antagonism of capsaicin-induced vTT specific currents” value on rat TRPV1 receptor (vTT infected 7b cells, RuR 5 μM in FIG. 3) is “brought the current back to baseline; also recorded: antagonized”.
In the case of `COc1cc(CNC(=O)CCCC/C=C/C(C)C)ccc1O` [capsaicin], the intracellular calcium response entry on TRPV1 [1] (QOZ (control) infected cells, 0.3 or 3 μM capsaicin) is reported as “no effect”; at TRPV1 [1] (vTT infected 7b cells, 0.3 μM capsaicin, versus 3 μM) it was “smaller response”. In addition, on TRPV1 [1] (vTT infected 7b cells, 8 hpi, 3 μM capsaicin), the intracellular calcium result is “significant increase”. Moreover, the “lowest concentration with significant differences in replication between vHG and vTT” value at TRPV1 [2] was 0.3 µM. Besides, at TRPV1 [2], the vTT replication result is “specifically inhibited”. Moreover, the vHG titers entry at TRPV1 [2] (3 μM CAP alone) was “without affecting”. On TRPV1 [2] (3 μM capsaicin, 72 hpi, p<0.05, n=4), the “growth ratio (GR), vHG to vTT virus yield, greatest differential” value is listed as about 500 fold. At TRPV1 [3] (3 μM capsaicin, 0.005% vHG input (1:20,000 vHG:vTT)), the “vHG (GFP+) percent output after two passages” value is 95%. For the same molecule, the “vHG (GFP+) percent output after one passage” value at TRPV1 [3] (3 μM capsaicin, 0.005% vHG input (1:20,000 vHG:vTT), 72 hpi) came out at 66%. Also, the “vHG proportion after two passages” value at TRPV1 [3] (capsaicin, 1:100,000 vHG input) came to 40%. For the same molecule, the “Capsaicin (nA)” value was “No” on rat TRPV1 receptor (no virus (uninfected cells)), “No” on rat TRPV1 receptor (vHG infected cells) and −6.0 ± 0.6 nA on rat TRPV1 receptor (setting [6]). Besides, the “response to capsaicin stimulation” value on rat TRPV1 receptor (vHG (control) infected 7b cells) is “do not respond; also recorded: did not respond”. For the same molecule, the “inward current following stimulation with capsaicin” value on rat TRPV1 receptor (vTT infected 7b cells, 0.5 μM capsaicin, FIG. 3 trace) amounted to 9 nA. The “Capsaicin Desensitization Time-course (tau, s)” value on rat TRPV1 receptor (setting [6]) was 280.6 ± 45.1 s.
As to `CCCC(=O)O[C@@H]1[C@@H](C)[C@@]2(O)[C@@H](C=C(CO)C[C@]3(O)C(=O)C(C)=C[C@@H]23)[C@@H]2C(C)(C)[C@]12OC(=O)CCC` [PDBu, phorbol 12,13-dibutyrate], the “effect on capsaicin current after the first phase of desensitization” value at rat TRPV1 receptor (vTT infected 7b cells, PDBu 5 μM) was “did not affect the current; also recorded: could not be enhanced”.
Take `COc1cccc(NC(=O)/C=C/c2ccc(Cl)cc2)c1` [SB-366791]: the “vTT viral titers in the presence of capsaicin” value on TRPV1 [2] (1 μM and 10 μM SB-366791 + 0.5 μM capsaicin, all time points, p<0.05, n=4) is “dose dependent rescue”. In addition, on TRPV1 [2] (CAP and SB-366791 together), the “replication of control vector vHG” value was “did not affect”. Moreover, at TRPV1 [2] (SB-366791 alone at 1 and 10 μM), the “replication of vHG or vTT, antagonist alone” value is “did not affect”.
Take `C=C(C)[C@]12C[C@@H](C)[C@@]34O[C@](Cc5ccccc5)(O[C@@H]1[C@@H]3C=C(COC(=O)Cc1ccc(O)c(OC)c1)C[C@]1(O)C(=O)C(C)=C[C@@H]41)O2` [RTX, resiniferatoxin]: the “growth ratio (GR), highest observed difference” value at TRPV1 [2] (1 μM RTX, 72 hpi, p<0.05, n=4) worked out at 474. Also, at TRPV1 [2] (nanomolar RTX, all time points), the “capsaicin dose relative to RTX dose giving similar reduction in vTT viral titers” value is reported as about 100 fold.
